Experimental data as given in PMC8510097 (Molecules, 2021).
Read-outs that look alike come from different tables or passages of the source.

Key:
[1] = system: SARS-CoV-2 strain JPN/TY/WK-521; assay: Antiviral assay, quantitative VeroE6 cell-based assay with RNA-qPCR
SARS-CoV-2 3CLpro [2] = biological target: T1, SARS-CoV-2 3CLpro (Severe acute respiratory syndrome coronavirus 2, UniProt P0DTD1); assay: SARS-CoV-2 3CLpro inhibition assay, continuous fluorescence with FRET substrate UIVT3; type: biochemical
SARS-CoV-2 = assay: Antiviral CPE protection assay in VeroE6 cells in the presence of P-glycoprotein inhibitor CP-100356 (CellTiter-Glo); type: cell-based; conditions: 2µM CP-100356, MOI 0.01, 72 hours
SARS-CoV-2^wk-521 = system: SARS-CoV-2^wk-521; parameters: method as in PMID 32820005, PMID 33510133; conditions: VeroE6 cells; cited from earlier work
[3] = system: SARS-CoV-2 strain JPN/TY/WK-521; parameters: method as in PMID 32820005, PMID 33510133; conditions: VeroE6 cells; read-out: antiviral EC50; cited from earlier work
SARS-CoV = conditions: cited from earlier work
SARS-CoV 3CL protease = conditions: Figure 1; read-out: IC50 (SARS-CoV 3C); cited from earlier work
SARS-CoV-2 3CLpro [4] = biological target: T1, SARS-CoV-2 3CLpro; assay: Mass analysis of enzyme-inhibitor complex (LC-MS); conditions: 2 μM protein, 20 μM compound, ten minutes
Method: The enzyme inhibitory activity (IC50 values) of synthetic active esters was assessed using a continuous fluorescence assay and the FRET-based substrate UIVT3 (HiLyteFluor488^TM-[…] -QXL520-NH2 (HPLC > 90%); Anaspec, Fremont, CA, USA) described by us previously. The antiviral activity (EC50 value) of compounds was evaluated using quantitative VeroE6 cell-based assay with RNA-qPCR as described by us recently. […] We presume that the mode of inhibition involves covalent bond formation with catalytic Cys145 as observed in our previous X-ray structural analysis of inhibitor-bound SARS-CoV-2 3CL protease as well as mass spectral analysis. The irreversible enzyme acylation of the NSAIDs-based inhibitor was examined by using […]. Authentic SARS-CoV-2 3CLpro was incubated with inhibitor 8a and then analyzed with untreated enzyme. As expected, we were able to see a signal for enzyme-bound compound 8a on the LC–MS spectrum that corresponds to acylation of 3CL protease with a mass shift of +212 Daltons.
Purified SARS-CoV-2 3CLpro was injected onto a Superdex™ 200 Increase 10/300 GL gel filtration column (GE Healthcare) equilibrated in 20 mM HEPES pH 7.5. […]
Positive ion spectra obtained were analyzed using Agilent MassHunter Qualitative Analysis Software B.06 and the deconvolution spectra were generated using Agilent MassHunter BioConfirm software B.06.

[5] = VeroE6 cells, RNA-qPCR, MOI 0.05, 72 h, read-out: SARS-CoV-2 EC50
[6] = 10 min pre-incubation of enzyme with compound, read-out: SARS CoV-2 3CLpro IC50
[7] = values given in nM, read-out: SARS-CoV-2 3CLpro enzyme IC50
[8] = Severe acute respiratory syndrome coronavirus 2, Vero C1008, 72 h, VeroE6 cells, RNA-qPCR, MOI 0.05, 72 h, read-out: SARS-CoV-2 EC50

Row | Compound | IC50 (SARS-CoV-2 3CLpro [2]; [6]) | EC50 [1, 8] | other results
1 | Cc1cccc(C(=O)Oc2c(C)cccc2C(=O)Oc2cncc(Cl)c2)c1O [C00009] | 4900 nM |  | EC50 [1, 5]: 23.8 µM
2 | COc1ccc2cc([C@@H](C)C(=O)Oc3cncc(Cl)c3)ccc2c1 [Compound 9a, 5-chloropyridin-3-yl (R)-2-(6-methoxynaphthalen-2-yl)propanoate] |  |  | antiviral activity in the presence of P-glycoprotein inhibitor CP-100356 (SARS-CoV-2): none of these compounds exhibited any significant antiviral activity; fold improvement of enzyme IC50 over the (S)-naproxen ester 8a (SARS-CoV-2 3CLpro [2]): over 4 fold; IC50 (SARS-CoV-2 3CLpro [2]; [7]): 160 nM
3 | Cc1ccc(O)c(C(=O)Oc2cncc(Cl)c2)c1 [C00012] | 390 nM |  | EC50 [1, 5]: 46.3 µM
4 | O=C(Oc1cncc(Cl)c1)c1c(O)cccc1F [C00017] | 108000 nM | > 100 µM | 
5 | Cc1ccc(C(=O)Oc2cc(C)ccc2C(=O)Oc2cncc(Cl)c2)c(O)c1 [C00011] | 1400 nM | > 100 µM | 
6 | Cc1cccc(O)c1C(=O)Oc1cccc(C)c1C(=O)Oc1cncc(Cl)c1 [C00016] | 15400 nM | > 100 µM | 
7 | CC(=O)Nc1cc(C(=O)Oc2cncc(Cl)c2)ccc1F [Compound 19a, 5-chloropyridin-3-yl 3-acetamido-4-fluorobenzoate] |  |  | enzyme inhibitory activity (in words) (SARS-CoV-2 3CLpro [2]): low micromolar range
8 | CC(C)Cc1ccc(C(C)C(=O)Oc2cncc(Cl)c2)cc1 (stereo not shown) [Compound 10a, 5-chloropyridin-3-yl 2-(4-isobutylphenyl)propanoate] |  |  | IC50 (SARS-CoV-2 3CLpro [2]; [7]): 810 nM
9 | O=C(Oc1cncc(Cl)c1)c1ccccc1O [Compound 12a, 5-chloropyridin-3-yl 2-hydroxybenzoate] | 3470 nM |  | 
10 | O=C(Oc1cncc(Cl)c1)c1cccc2[nH]ccc12 [Compound 3] |  |  | activity in immunocytochemistry assay (in words) (SARS-CoV-2^wk-521): blocked the infectivity and cytopathic effect
11 | COc1ccc2cc([C@@H](C)C(=O)Oc3cncc(Cl)c3)ccc2c1 [C00003] | 160 nM | > 100 µM | 
12 | CC(=O)Nc1cccc(C(=O)Oc2cncc(Cl)c2)c1 [Compound 18a, 5-chloropyridin-3-yl 3-acetamidobenzoate] |  |  | enzyme inhibitory activity (in words) (SARS-CoV-2 3CLpro [2]): low micromolar range
13 | O=C(Oc1cncc(Cl)c1)c1cccc2c1CCN2 [Compound 4] |  |  | EC50 [3]: 15 µM; activity in immunocytochemistry assay (in words) (SARS-CoV-2^wk-521): potent enzyme inhibitory and antiviral activity
14 | O=C(Oc1cncc(Cl)c1)c1ccccc1O [C00006] |  | > 100 µM | 
15 | O=C(Oc1ccccc1C(=O)Oc1cncc(Cl)c1)c1ccccc1O [Compound 12b, 5-chloropyridin-3-yl 2-((2-hydroxybenzoyl)oxy)benzoate] |  | 64 µM | fold reduction in enzyme activity versus monoester 12a (SARS-CoV-2 3CLpro [2]): 5 fold
16 | Cc1ccc(C(=O)Oc2cncc(Cl)c2)c(O)c1 [Compound 14a, 5-chloropyridin-3-yl 2-hydroxy-4-methylbenzoate] |  |  | antiviral activity in the presence of P-glycoprotein inhibitor CP-100356 (SARS-CoV-2): none of these compounds exhibited any significant antiviral activity
17 | O=C(On1nnc2ccccc21)c1ccc2[nH]ccc2c1 [Compound 1] |  |  | antiviral activity (in words) (SARS-CoV): did not show antiviral activity; IC50 (SARS-CoV 3CL protease): 0.2 µM
18 | CC(=O)Nc1cccc(C(=O)Oc2cncc(Cl)c2)c1 [C00018] | 1110 nM | > 100 µM | 

Row | Compound | IC50 (SARS-CoV-2 3CLpro [2]; [6]) | EC50 [1, 8] | other results
19 | Cc1cccc(C(=O)Oc2cncc(Cl)c2)c1O [Compound 13a, 5-chloropyridin-3-yl 2-hydroxy-3-methylbenzoate] |  |  | IC50 (SARS-CoV-2 3CLpro [2]; [7]): 650 nM
20 | O=C(Oc1cncc(Cl)c1)c1cccs1 [Compound 2] |  |  | antiviral activity (in words) (SARS-CoV): did not show antiviral activity; IC50 (SARS-CoV 3CL protease): 0.5 µM
21 | COc1ccc2c(c1)c(CC(=O)Oc1cncc(Cl)c1)c(C)n2C(=O)c1ccc(Cl)cc1 [Compound 11a, 5-chloropyridin-3-yl 2-(1-(4-chlorobenzoyl)-5-methoxy-2-methyl-1H-indol-3-yl)acetate] |  |  | EC50 ([1]; Severe acute respiratory syndrome coronavirus 2, Vero C1008, 72 h, read-out: SARS-CoV-2 EC50, VeroE6 cells, RNA-qPCR, MOI 0.05, 72 h): 30 µM; antiviral activity in the presence of P-glycoprotein inhibitor CP-100356 (SARS-CoV-2): none of these compounds exhibited any significant antiviral activity; enzyme inhibitory activity (in words) (SARS-CoV-2 3CLpro [2]): significant reduction in enzyme activity
22 | Cc1ccc(O)c(C(=O)Oc2ccc(C)cc2C(=O)Oc2cncc(Cl)c2)c1 [C00013] | 740 nM |  | EC50 [1, 5]: 48.3 µM
23 | Cc1ccc(O)c(C(=O)Oc2ccc(C)cc2C(=O)Oc2ccc(C)cc2C(=O)Oc2cncc(Cl)c2)c1 [C00014] | 3730 nM | > 100 µM | 
24 | CC(=O)Nc1cc(C(=O)Oc2cncc(Cl)c2)ccc1F [C00019] | 1510 nM | > 100 µM | 
25 | O=C(Oc1ccccc1C(=O)Oc1cncc(Cl)c1)c1ccccc1O [C00007] | 17100 nM |  | EC50 [1, 5]: 63.7 µM
26 | CC(=O)Oc1ccccc1C(=O)Oc1cncc(Cl)c1 [C00001] | 360 nM |  | 
27 | Cc1ccc(O)c(C(=O)Oc2cncc(Cl)c2)c1 [Compound 15a, 5-chloropyridin-3-yl 2-hydroxy-5-methylbenzoate] |  | 24 to 64 µM | antiviral activity in the presence of P-glycoprotein inhibitor CP-100356 (SARS-CoV-2): none of these compounds exhibited any significant antiviral activity
28 | COc1ccc2cc([C@H](C)C(=O)Oc3cncc(Cl)c3)ccc2c1 [Compound 8a, 5-chloropyridin-3-yl (S)-2-(6-methoxynaphthalen-2-yl)propanoate] |  |  | IC50 (SARS-CoV-2 3CLpro [2]; [7]): 670 nM; mass shift of 3CL protease on acylation by inhibitor (SARS-CoV-2 3CLpro [4]): +212 Daltons
29 | COc1ccc2c(c1)c(CC(=O)Oc1cncc(Cl)c1)c(C)n2C(=O)c1ccc(Cl)cc1 [C00005] | 5320 nM |  | EC50 [1, 5]: 30.2 µM
30 | Cc1cccc(O)c1C(=O)Oc1cncc(Cl)c1 [C00015] | 4260 nM | > 100 µM | 
31 | Cc1cccc(C(=O)Oc2c(C)cccc2C(=O)Oc2cncc(Cl)c2)c1O [Compound 13b, 5-chloropyridin-3-yl 2-((2-hydroxy-3-methylbenzoyl)oxy)-3-methylbenzoate] | 4900 nM | 24 µM | 
32 | COc1ccc2cc([C@H](C)C(=O)Oc3cncc(Cl)c3)ccc2c1 [C00002] | 670 nM | > 100 µM | 
33 | CC(C)Cc1ccc(C(C)C(=O)Oc2cncc(Cl)c2)cc1 (stereo not shown) [C00004] | 810 nM | > 100 µM | 
34 | CCC(CC)COC(=O)[C@H](C)N[P@](=O)(OC[C@H]1O[C@@](C#N)(c2ccc3c(N)ncnn23)[C@H](O)[C@@H]1O)Oc1ccccc1 [Compound 5, remdesivir, reference compound] |  |  | EC50 ([1]; Severe acute respiratory syndrome coronavirus 2, Vero C1008, read-out: antiviral EC50 (table footnote a, reference compounds), VeroE6 cells): 2.4 µM
35 | Cc1cccc(C(=O)Oc2cncc(Cl)c2)c1O [C00008] | 650 nM | > 100 µM | 
36 | Cc1ccc(C(=O)Oc2cncc(Cl)c2)c(O)c1 [C00010] | 540 nM | > 100 µM | 
